Measured values as given in US9884891B2, “KISS1R receptor agonist compounds and use thereof for inducing ovulation in mammals” (INSTITUT NATIONAL DE LA RECHERCHE AGRONOMIQUE, priority 2013, dated 2018).
Where two headings read alike, the source gives them in different places. Blank lines part the entries; values can stand above or below the molecule they belong to. *1 amine or outer side, *2 acyl side, *3 side chain or, on linkers, in order; H or OH if unused. Where a SMILES comes first, the peptide text is derived from it. [ ]: non-standard residue; d: D form. The star is where a group is joined. PEG 5000 = polyethylene glycol (5000) attached to the Lys side chain; Glyψ(1,4-Tz)Leu = CC(C)C[C@@H](C(=O)[*:2])n1cc(CN[*:1])nn1; γGlu = O=C(O)[C@H](CCC(=O)[*:2])N[*:1]; Arg(Me) = CNC(=N)NCCC[C@H](N)C(=O)O; Palmitoyl = CCCCCCCCCCCCCCCC(=O)*

Legend:
[1] = target: T1, human KISS1R receptor (Homo sapiens, UniProt Q969F8); assay: Intracellular calcium mobilization test in HEK293A cells expressing human KISS1R; format: cell-based; conditions: for EC50: HEK293A cells expressing human KISS1R, Fluo-4NW; for human KISS1R-stimulating power (in words): calcium mobilization, compared with Comp.1
T1 construct: expressed in transfected cells
Source text: In order to carry out the in vitro tests for the activity of the peptide compounds in accordance with the invention and the comparative compounds, the HEK293A cell line (ATCC, American Type Culture Collection, Manassas, Va., USA) was stably transfected with the human KISS1R receptor (Genbank accession number: NM_032551). The pcDNA3.1 vector (Invitrogen, Cergy Pontoise, France), into which the sequence of human KISS1R has been inserted with a 5′ HA tag at position 957-2150 bp, was used for the transfection. The transfection and the selection of the clones were carried out as described in the literature (Mancini et al. 2009, and Invitrogen website).
In order to verify the agonist activity and to measure the EC50 of the peptide compounds according to the invention, the following protocol was carried out.
HEK293A cells expressing the human KISS1R receptor were seeded into a 96-well plate (μClear® black plate) at the concentration of 40 000 cells/well, and placed in an incubator at 37° C. After 48 hours, the medium was changed and the cells were incubated with the fluorescent dye Fluo-4NW, according to the instructions of the manufacturer (Molecular Probe).
After having measured the basal fluorescence, 5 μl of the 20× solution containing the test compound were added to each well (containing 95 μl) so as to obtain the desired concentration. The variations in fluorescence were recorded every 7 seconds for 5-7 minutes with a plate reader (PolarStar Optima, BMG Labtech). Activity-concentration curves were generated using the GraphPad Prism 5 software, and the EC50 of each compound was calculated by adjusting the curve to a sigmoid.

[2] = Test for proteolytic degradation of the peptide compounds in ovine serum; format: in vitro ADME, ewes of the Ile de France breed; conditions: female, Ile de France, sheep
Procedure: In order to carry out this test, blood was collected from the jugular vein of ewes of the Ile de France breed, and centrifuged. The supernatant (serum) was stored at −20° C. until use.
The degradation in this serum of the various peptide compounds in accordance with the invention and of the comparative peptide compounds is monitored over time. To this effect, each peptide compound to be analyzed and the internal calibrant (L-phenylalaninol) are dissolved in milliQ water (0.5 mM and 6.6 mM, respectively). The commercial protease inhibitor cocktail (Sigma, ref. P8340) is supplied in solution in DMSO.
The serum and the stock solutions of peptide compounds are preheated at 39° C. for 30 minutes. Each solution of peptide compound (50 μl, i.e. a final concentration in the serum of 50 μM) and the solution of internal calibrant (25 μl) are mixed with 425 μl of serum and incubated at 39° C. The proteolytic degradation kinetics of the compounds are monitored by taking a sample, at various given times, of 75 μl of the solution, which are diluted with 150 μL of acetonitrile in order to precipitate the serum proteins. The suspension obtained is centrifuged at 14 000 revolutions/min for 10 min at 4° C.
The amount of peptide compound intact after incubation is determined by integration of the area of the peak, using L-phenylalaninol as internal calibrant. It is expressed as % of the area of the peak at time t=0.
The value corresponding to 100% of intact peptide compound is obtained by mixing 420 μl of serum, 5 μl of the inhibitor cocktail and 25 μl of the phenylalaninol solution, followed by 50 μl of peptide compound, and then by immediately treating the resulting solution according to the protocol described above.

[3] = compounds with serum albumin binding unit or PEG, read-out: EC50, intracellular calcium mobilization of cells expressing human KISS1R (Table 3)
[4] = ovine serum, 39° C., 50 μM, 3 h, % of the area of the HPLC peak at time t = 0, read-out: % of peptide intact after 3 h of incubation in the serum
[5] = read-out: EC50, intracellular calcium mobilization of cells expressing human KISS1R (Table 2)

T1 sequence (Q969F8 whole entry): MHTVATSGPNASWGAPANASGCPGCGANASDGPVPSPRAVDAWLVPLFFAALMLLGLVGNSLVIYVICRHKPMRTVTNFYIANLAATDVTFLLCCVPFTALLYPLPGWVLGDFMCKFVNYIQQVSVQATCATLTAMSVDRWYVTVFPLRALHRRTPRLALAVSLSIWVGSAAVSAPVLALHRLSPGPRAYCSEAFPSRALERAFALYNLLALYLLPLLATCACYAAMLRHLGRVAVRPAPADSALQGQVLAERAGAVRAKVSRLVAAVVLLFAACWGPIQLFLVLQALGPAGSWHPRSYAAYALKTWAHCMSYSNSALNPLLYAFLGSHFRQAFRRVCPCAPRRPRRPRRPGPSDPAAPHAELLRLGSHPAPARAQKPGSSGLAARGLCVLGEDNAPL

- EC50 [1, 3]: < 0.001 nM
Molecule: CCCCCCCCCCCCCCCC(=O)N[C@@H](CCC(=O)N[C@@H](Cc1ccc(O)cc1)C(=O)N[C@@H](CC(N)=O)C(=O)N[C@@H](Cc1c[nH]c2ccccc12)C(=O)N[C@@H](CC(N)=O)C(=O)N[C@@H](CO)C(=O)N[C@@H](Cc1ccccc1)C(=O)NCc1cn([C@@H](CC(C)C)C(=O)N[C@@H](CCCNC(=N)NC)C(=O)N[C@@H](Cc2ccc(O)cc2)C(N)=O)nn1)C(=O)O [Compound C12, γ-(N-hexadecanoyl-Glu-OH)Tyr-Asn-Trp-Asn-Ser-Phe-GlyΨ[Tz]Leu-Arg(Me)-Tyr-NH2] ({Palmitoyl-γGlu}-YNWNSF[Glyψ(1,4-Tz)Leu][Arg(Me)]Y-NH2)

Molecule: H-YNWNSFGLRY-NH2 [Comp. 1, reference compound]
- remaining at 3 h, 50 μM [2, 4]: < 0.1%

- EC50 [1, 3]: < 0.001 nM
Molecule: CCCCCCCCCCCCCCCC(=O)N[C@@H](CCC(=O)N[C@@H](Cc1ccc(O)cc1)C(=O)N[C@@H](CC(N)=O)C(=O)N[C@@H](Cc1c[nH]c2ccccc12)C(=O)N[C@@H](CC(N)=O)C(=O)N[C@@H](CO)C(=O)N[C@@H](Cc1ccccc1)C(=O)NCc1cn([C@@H](CC(C)C)C(=O)N[C@@H](CCCNC(=N)N)C(=O)N[C@@H](Cc2ccc(O)cc2)C(N)=O)nn1)C(=O)O [Compound C9, γ-(N-hexadecanoyl-Glu-OH)-Tyr-Asn-Trp-Asn-Ser-Phe-GlyΨ[Tz]Leu-Arg-Tyr-NH2] (HELM PEPTIDE1{[CCCCCCCCCCCCCCCC(=O)[*:2]].[gGlu].Y.N.W.N.S.F.[CC(C)C[C@@H](C(=O)[*:2])n1cc(CN[*:1])nn1].R.Y.[am]}$$$$V2.0)

- EC50 [1, 3]: 0.01 nM
Molecule: CCCCCCCCCCCCCCCC(=O)N[C@@H](CCC(=O)N[C@@H](Cc1ccc(O)cc1)C(=O)N[C@@H](CC(N)=O)C(=O)N[C@@H](Cc1c[nH]c2ccccc12)C(=O)N[C@@H](CC(N)=O)C(=O)N[C@@H](CO)C(=O)N[C@@H](Cc1ccccc1)C(=O)NCc1cn([C@@H](CC(C)C)C(=O)N[C@@H](CCCNC(=N)N)C(=O)N[C@@H](Cc2ccccc2)C(N)=O)nn1)C(=O)O [Compound C13, γ-(N-hexadecanoyl-Glu-OH)Tyr-Asn-Trp-Asn-Ser-Phe-GlyΨ[Tz]Leu-Arg-Phe-NH2] (HELM PEPTIDE1{[CCCCCCCCCCCCCCCC(=O)[*:2]].[gGlu].Y.N.W.N.S.F.[CC(C)C[C@@H](C(=O)[*:2])n1cc(CN[*:1])nn1].R.F.[am]}$$$$V2.0)

- remaining at 3 h, 50 μM ([2]; serum): 17%
- EC50 [1, 5]: 0.014 nM
Molecule: CNC(=N)NCCC[C@H](NC(=O)[C@H](CC(C)C)n1cc(CNC(=O)[C@H](Cc2ccccc2)NC(=O)[C@@H](NC(=O)[C@H](CC(N)=O)NC(=O)[C@@H]2C[C@@H](O)CN2C(=O)[C@@H](Cc2ccc(O)cc2)NC(C)=O)[C@@H](C)O)nn1)C(=O)N[C@@H](Cc1c[nH]c2ccccc12)C(N)=O [Compound C7, Ac-DTyr-Hyp-Asn-Thr-Phe-GlyΨ[Tz]Leu-Arg(Me)-Trp-NH2] (HELM PEPTIDE1{[ac].[dY].[Hyp].N.T.F.[CC(C)C[C@@H](C(=O)[*:2])n1cc(CN[*:1])nn1].[CNC(=N)NCCC[C@H](N[*:1])C(=O)[*:2]].W.[am]}$$$$V2.0)

Molecule: Ac-Tyr-Lys(PEG5000)-Trp-Asn-Ser-Phe-GlyΨ[Tz]Leu-Arg-Tyr-NH2 (Ac-YK(PEG 5000)WNSFGLRY-NH2; also: Gly7-Leu8 peptide bond replaced by 1,4-disubstituted 1,2,3-triazole) [Compound C16, PEG5000 = COCH2CH2NH(CH2CH2O)nMe, average molecular weight approximately 5000 g/mol]
- human KISS1R-stimulating power (in words) [1]: shows a power similar to the comparative compound Comp.1

- remaining at 3 h, 50 μM ([2]; serum): 55%
- EC50 [1, 5]: 0.014 nM
Molecule: CNC(=N)NCCC[C@H](NC(=O)[C@H](CC(C)C)n1cc(CNC(=O)[C@H](Cc2ccccc2)NC(=O)[C@H](CO)NC(=O)[C@H](CC(N)=O)NC(=O)[C@H](Cc2c[nH]c3ccccc23)NC(=O)[C@H](CC(N)=O)NC(=O)[C@H](Cc2ccc(O)cc2)NC(C)=O)nn1)C(=O)N[C@@H](Cc1ccc(O)cc1)C(N)=O [Compound C3, Ac-Tyr-Asn-Trp-Asn-Ser-Phe-GlyΨ[Tz]Leu-Arg(Me)-Tyr-NH2] (HELM PEPTIDE1{[ac].Y.N.W.N.S.F.[CC(C)C[C@@H](C(=O)[*:2])n1cc(CN[*:1])nn1].[CNC(=N)NCCC[C@H](N[*:1])C(=O)[*:2]].Y.[am]}$$$$V2.0)

Molecule: CCCCCCCCCCCCCCCC(=O)N[C@@H](CCC(=O)NCCCC[C@H](NC(=O)[C@H](CC(N)=O)NC(=O)[C@H](Cc1ccc(O)cc1)NC(C)=O)C(=O)N[C@@H](CC(N)=O)C(=O)N[C@@H](CO)C(=O)N[C@@H](Cc1ccccc1)C(=O)NCc1cn([C@@H](CC(C)C)C(=O)N[C@@H](CCCNC(=N)N)C(=O)N[C@@H](Cc2ccc(O)cc2)C(N)=O)nn1)C(=O)O [Compound C11, Ac-Tyr-Asn-Lys(γ-(N-hexadecanoyl-Glu-OH))-Asn-Ser-Phe-GlyΨ[Tz]Leu-Arg-Tyr-NH2] (HELM PEPTIDE1{[ac].Y.N.K.N.S.F.[CC(C)C[C@@H](C(=O)[*:2])n1cc(CN[*:1])nn1].R.Y.[am]}|PEPTIDE2{[CCCCCCCCCCCCCCCC(=O)[*:2]].[gGlu]}$PEPTIDE1,PEPTIDE2,4:R3-2:R2$$$V2.0)
- human KISS1R-stimulating power (in words) [1]: remains, however, active, although to a lesser degree

- EC50 [1, 3]: < 0.001 nM
Molecule: CCCCCCCCCCCCCCCC(=O)N[C@@H](CCC(=O)N[C@@H](Cc1ccc(O)cc1)C(=O)N[C@@H](CC(N)=O)C(=O)N[C@@H](Cc1c[nH]c2ccccc12)C(=O)N[C@@H](CC(N)=O)C(=O)N[C@@H](CO)C(=O)N[C@@H](Cc1ccccc1)C(=O)NCc1cn([C@@H](CC(C)C)C(=O)N[C@@H](CCCNC(=N)N)C(=O)N[C@@H](Cc2c[nH]c3ccccc23)C(N)=O)nn1)C(=O)O [Compound C10, γ-(N-hexadecanoyl-Glu-OH)Tyr-Asn-Trp-Asn-Ser-Phe-GlyΨ[Tz]Leu-Arg-Trp-NH2] (HELM PEPTIDE1{[CCCCCCCCCCCCCCCC(=O)[*:2]].[gGlu].Y.N.W.N.S.F.[CC(C)C[C@@H](C(=O)[*:2])n1cc(CN[*:1])nn1].R.W.[am]}$$$$V2.0)

- remaining at 3 h, 50 μM ([2]; serum): 51%
Molecule: CC(=O)N[C@@H](Cc1ccc(O)cc1)C(=O)N[C@@H](CC(N)=O)C(=O)N[C@@H](Cc1c[nH]c2ccccc12)C(=O)N[C@@H](CC(N)=O)C(=O)N[C@@H](CO)C(=O)N[C@@H](Cc1ccccc1)c1cn(Cc2cn([C@@H](CC(C)C)C(=O)N[C@@H](CCCNC(=N)N)C(=O)N[C@@H](Cc3ccc(O)cc3)C(N)=O)nn2)nn1 [Compound C5, Ac-Tyr-Asn-Trp-Asn-Ser-PheΨ[Tz]GlyΨ[Tz]Leu-Arg-Tyr-NH2]
- human KISS1R-stimulating power (in words) [1]: remains, however, active, although to a lesser degree

Molecule: CC(C)C[C@H](NC(=O)CNC(=O)[C@H](Cc1ccccc1)NC(=O)[C@H](CO)NC(=O)[C@H](CC(N)=O)NC(=O)[C@H](Cc1c[nH]c2ccccc12)NC(=O)[C@H](CC(N)=O)NC(=O)[C@@H](N)Cc1ccc(O)cc1)C(=O)N[C@@H](CCCNC(=N)N)C(=O)N[C@@H](Cc1ccccc1)C(N)=O [Comp. 2, reference compound]
- remaining at 3 h, 50 μM [2, 4]: < 0.1%
